Source: paper PMC11501026, “L-Arginine and asymmetric dimethylarginine (ADMA) transport across the mouse blood-brain and blood-CSF barriers: Evidence of saturable transport at both interfaces and CNS to blood efflux” (PLOS ONE, 2024)
Structures can show the parent of a compound that is named as a salt. Where two headings read alike, the source gives them in different places.

How the values were obtained:
Format in all cases: in vivo, mouse
[1] = tested on: [3H]-ADMA transport across the blood-brain and blood-CSF barriers; assay: self-inhibition, in situ perfusion: [^3H]-ADMA with 100 μM unlabelled ADMA; settings: male, Balb/c, mouse, other: in situ brain perfusion, with unlabelled ADMA 100 µM, 10 mins, Balb/c ♂, 5ml/min
Description: (§1) Self-inhibition experiments were also performed. […] Cross-competition experiments were also performed.
(§2) The percentage change in the RTissue uptake values achieved in the absence or presence of an unlabelled inhibitor can be calculated by means of Eq 4.
(§3) %change=RTissue−RInhibition/RTissue×100 Eq 4
(§4) We define RInhibition as the RTissue uptake in the presence of an inhibitor in the artificial plasma.
(§5) A decrease in the uptake of radiolabelled solute in the presence of unlabelled inhibitor is indicative of a saturable influx transport system. Conversely, an increase in the uptake of radiolabelled solute in the presence of unlabelled inhibitor is indicative of a saturable efflux transport system.

[2] = cross-inhibition, in situ perfusion: [^3H]-ADMA with 100 μM unlabelled L-arginine; settings: male, Balb/c, mouse, other: in situ brain perfusion, with 100 µM unlabelled L-arginine, 10 mins, Balb/c ♂, 5ml/min
Description: as §1, §2, §3, §4, §5

[3] = tested on: [3H]-ADMA transport across the blood-brain and blood-CSF barriers; assay: as above; settings: male, Balb/c, mouse, other: in situ brain perfusion, with 100 µM unlabelled L-arginine, 10 mins, Balb/c ♂, 5ml/min
Description: as §1, §2, §3, §4, §5

CN(C)C(N)=NCCC[C@H](N)C(=O)O [ADMA, N^G,N^G-dimethylarginine dihydrochloride]
Kp at 10 min, 62.5 nM ([1]; CSF, Difference (ADMA minus Sucrose), CSF, + 100uM un-labelled ADMA, mean): 2.01
Kp at 10 min, 62.5 nM ([1]; CSF, [3H] ADMA + [14C] Sucrose + 100uM un-labelled ADMA, mean, read-out: uptake into CSF): 2.15
Kp at 10 min, 62.5 nM ([1]; cerebellum, Difference (ADMA minus Sucrose), cerebellum, + 100uM un-labelled ADMA, individual mice): 0.0515
Kp at 10 min, 62.5 nM ([1]; cerebellum, Difference (ADMA minus Sucrose), cerebellum, + 100uM un-labelled ADMA, mean): 0.0701
Kp at 10 min, 62.5 nM ([1]; cerebellum, [3H] ADMA + [14C] Sucrose + 100uM un-labelled ADMA, individual mice, read-out: uptake into cerebellum): 0.09
Kp at 10 min, 62.5 nM ([1]; cerebellum, [3H] ADMA + [14C] Sucrose + 100uM un-labelled ADMA, mean, read-out: uptake into cerebellum): 0.121
Kp at 10 min, 62.5 nM ([1]; homogenate, Difference (ADMA minus Sucrose), homogenate, + 100uM un-labelled ADMA, mean): 0.0396
Kp at 10 min, 62.5 nM ([1]; homogenate, [3H] ADMA + [14C] Sucrose + 100uM un-labelled ADMA, individual mice, read-out: uptake, homogenate): 0.0686
Kp at 10 min, 62.5 nM ([1]; homogenate, [3H] ADMA + [14C] Sucrose + 100uM un-labelled ADMA, mean, read-out: uptake, homogenate): 0.0884
Kp at 10 min, 62.5 nM ([1]; hypothalamus, Difference (ADMA minus Sucrose), hypothalamus, + 100uM un-labelled ADMA, mean): 0.0972
Kp at 10 min, 62.5 nM ([1]; hypothalamus, [3H] ADMA + [14C] Sucrose + 100uM un-labelled ADMA, mean, read-out: uptake into hypothalamus): 0.146
Kp at 10 min, 62.5 nM ([1]; pellet, Difference (ADMA minus Sucrose), pellet, + 100uM un-labelled ADMA, individual mice): 0.01
Kp at 10 min, 62.5 nM ([1]; pellet, [3H] ADMA + [14C] Sucrose + 100uM un-labelled ADMA, individual mice, read-out: uptake, pellet): 0.0144
Kp at 10 min, 62.5 nM ([1]; pellet, [3H] ADMA + [14C] Sucrose + 100uM un-labelled ADMA, mean, read-out: uptake, pellet): 0.0179
Kp at 10 min, 62.5 nM ([1]; pituitary gland, Difference (ADMA minus Sucrose), pituitary gland, + 100uM un-labelled ADMA, mean): 0.586
Kp at 10 min, 62.5 nM ([1]; pituitary gland, [3H] ADMA + [14C] Sucrose + 100uM un-labelled ADMA, mean, read-out: uptake into pituitary gland): 0.681
Kp at 10 min, 62.5 nM ([1]; pons, Difference (ADMA minus Sucrose), pons, + 100uM un-labelled ADMA, mean): 0.0724
Kp at 10 min, 62.5 nM ([1]; pons, [3H] ADMA + [14C] Sucrose + 100uM un-labelled ADMA, individual mice, read-out: uptake into pons): 0.102
Kp at 10 min, 62.5 nM ([1]; pons, [3H] ADMA + [14C] Sucrose + 100uM un-labelled ADMA, mean, read-out: uptake into pons): 0.127
Kp at 10 min, 62.5 nM ([1]; supernatant, Difference (ADMA minus Sucrose), supernatant, + 100uM un-labelled ADMA, mean): 0.0316
Kp at 10 min, 62.5 nM ([1]; supernatant, [3H] ADMA + [14C] Sucrose + 100uM un-labelled ADMA, individual mice, read-out: uptake, supernatant): 0.047
Kp at 10 min, 62.5 nM ([1]; supernatant, [3H] ADMA + [14C] Sucrose + 100uM un-labelled ADMA, mean, read-out: uptake, supernatant): 0.0703
Kp at 10 min, 62.5 nM ([1]; thalamus, Difference (ADMA minus Sucrose), thalamus, + 100uM un-labelled ADMA, mean): 0.0727
Kp at 10 min, 62.5 nM ([1]; thalamus, [3H] ADMA + [14C] Sucrose + 100uM un-labelled ADMA, individual mice, read-out: uptake into thalamus): 0.077
Kp at 10 min, 62.5 nM ([1]; thalamus, [3H] ADMA + [14C] Sucrose + 100uM un-labelled ADMA, mean, read-out: uptake into thalamus): 0.117
Kp at 10 min, 62.5 nM ([2]; CSF, [3H] ADMA + [14C] Sucrose + 100uM Arg, mean, read-out: uptake into CSF): 0.162
Kp at 10 min, 62.5 nM ([2]; brain homogenate, Difference (ADMA minus Sucrose), homogenate, + 100uM Arg, mean): 0.0265
Kp at 10 min, 62.5 nM ([2]; brain homogenate, [3H] ADMA + [14C] Sucrose + 100uM Arg, mean, read-out: uptake, homogenate): 0.063
Kp at 10 min, 62.5 nM ([2]; pellet, Difference (ADMA minus Sucrose), pellet, + 100uM Arg, individual mice): 0.00309
Kp at 10 min, 62.5 nM ([2]; pellet, [3H] ADMA + [14C] Sucrose + 100uM Arg, mean, read-out: uptake, pellet): 0.011
Kp at 10 min, 62.5 nM ([2]; supernatant, Difference (ADMA minus Sucrose), supernatant, + 100uM Arg, mean): 0.0204
Kp at 10 min, 62.5 nM ([2]; supernatant, [3H] ADMA + [14C] Sucrose + 100uM Arg, mean, read-out: uptake, supernatant): 0.0475
Kp at 10 min, 62.5 nM ([3]; caudate nucleus, Difference (ADMA minus Sucrose), caudate nucleus, + 100uM Arg, mean): 0.0481
Kp at 10 min, 62.5 nM ([3]; caudate nucleus, [3H] ADMA + [14C] Sucrose + 100uM Arg, individual mice, read-out: uptake into caudate nucleus): 0.0565
Kp at 10 min, 62.5 nM ([3]; caudate nucleus, [3H] ADMA + [14C] Sucrose + 100uM Arg, mean, read-out: uptake into caudate nucleus): 0.0664
Kp at 10 min, 62.5 nM ([3]; cerebellum, Difference (ADMA minus Sucrose), cerebellum, + 100uM Arg, mean): 0.0445
Kp at 10 min, 62.5 nM ([3]; cerebellum, [3H] ADMA + [14C] Sucrose + 100uM Arg, mean, read-out: uptake into cerebellum): 0.0673
Kp at 10 min, 62.5 nM ([3]; choroid plexus, Difference (ADMA minus Sucrose), choroid plexus, + 100uM Arg, individual mice): 0.469
Kp at 10 min, 62.5 nM ([3]; choroid plexus, Difference (ADMA minus Sucrose), choroid plexus, + 100uM Arg, mean): 0.471
Kp at 10 min, 62.5 nM ([3]; choroid plexus, [3H] ADMA + [14C] Sucrose + 100uM Arg, individual mice, read-out: uptake into choroid plexus): 0.609
Kp at 10 min, 62.5 nM ([3]; choroid plexus, [3H] ADMA + [14C] Sucrose + 100uM Arg, mean, read-out: uptake into choroid plexus): 0.616
Kp at 10 min, 62.5 nM ([3]; frontal cortex, Difference (ADMA minus Sucrose), frontal cortex, + 100uM Arg, mean): 0.0598
Kp at 10 min, 62.5 nM ([3]; frontal cortex, [3H] ADMA + [14C] Sucrose + 100uM Arg, mean, read-out: uptake into frontal cortex): 0.0858
Kp at 10 min, 62.5 nM ([3]; hippocampus, Difference (ADMA minus Sucrose), hippocampus, + 100uM Arg, mean): 0.0475
Kp at 10 min, 62.5 nM ([3]; hippocampus, [3H] ADMA + [14C] Sucrose + 100uM Arg, mean, read-out: uptake into hippocampus): 0.0608
